Earlier results, collected in US10603349B2, “Method for preparing pharmaceutical compositions of rhizomes from Alpinia galanga or Alpinia conchigera having a high content of 1′S-1′-acetoxychavicol acetate (ACA)” (NERTHUS APS, priority 2013, dated 2020).

Tested on: whole-body insulin resistance
Details: fructose-induced rat model of metabolic syndrome

For `O=c1c(O)c(-c2ccccc2)oc2cc(O)cc(O)c12` [Galangin, galangin], which “Blood glucose and insulin levels” value is on record?
The value was “dose-dependently normalized”.
